Structures can show the parent of a compound that is named as a salt.

What is called melting point is the temperature, or range, at which the solid turns liquid. `Cl.N=C(N)Nc1nc(-c2ccccc2)c2c(O)cccc2n1` gave a melting point of 310 °C.
For `CN=C(NC)Nc1nc(-c2ccccc2)c2cc(Cl)ccc2n1.Cl` the value was 264 to 267 °C; for `CS(=O)(=O)c1ccc2nc(NC(=N)N)nc(-c3ccccc3)c2c1` (as salt: HCl) [Example 6, N-(6-methanesulfonyl-4-phenylquinazolin-2-yl)guanidine], 180 to 185 °C.
In turn, `C[S+]([O-])c1ccc2nc(NC(=N)N)nc(-c3ccccc3)c2c1` (stereo not shown) [Example 5, N-(6-methanesulfinyl-4-phenylquinazolin-2-yl)guanidine] returned a melting point of 175 to 180 °C.

Source of the values: patent US20040039001A1, “2-guanidino-4-aryl-quinazoline” (priority 2000, published 2004).
